Assay results published in US20060030602A1, “(S)-amlodipine malate” (Sepracor Inc., priority 2004, published 2006).
Where a name gives a salt, the structure may show the parent alone. Read-outs that look alike come from different tables or passages of the source.

Experiments:
[1] = no buffer
[2] = adhesion studies on tablet punches; format: physicochemical; conditions: for Adhesion, 5% (S)-Amlodipine salt in Avicel: 5% API blend with Avicel PH 101, 0.2 metric tons; for Adhesion, 5% (S)-Amlodipine salt in Avicel / Adhesion, 25% (S)-Amlodipine salt in Avicel: punch wash assayed by HPLC; for Adhesion, 25% (S)-Amlodipine salt in Avicel: 25% API blend with Avicel PH 101, 0.2 metric tons; for adhesion to solid dosage form manufacturing equipment compared to other salts: blended at 5% and 25% with Avicel
Protocol: Avicel PH 101 and each (S)-amlodipine salt were pre-screened through a 25-mesh sieve to delump the powders prior to blending. […] Approximately 500 mg was weighed into the ½-inch tablet die, a tablet punch was added and 0.2 metric tons of pressure was applied using a Carver press for 2-3 seconds. The tablet was then removed, and the surfaces of the tablet punches (concave, SRC) were washed with mobile phase (1 mL). The wash was then assayed by HPLC. Three measurements were made for each blend.

wettability = format: physicochemical; conditions: DI water and 100 mM aqueous buffers
[3] = true, bulk and tapped density; format: physicochemical
Protocol: Bulk and Tap Density: Bulk and tap densities were determined (˜10 grams in a 50 mL graduated cylinder) using a Quantachrome Dual Autotap instrument. The bulk density was measured after 3 taps, and the tapped density was measured after 1000 taps. True Density: True density was determined using a MVP-2 Quantachrome micropycnometer and He gas.

[4] = format: physicochemical
Protocol: (§1) Moisture Sorption Isotherms: Moisture sorption isotherms were generated using VTI SGA-100 symmetric vapor sorption analyzer. Samples were not pre-dried. Equilibrium criteria were the lesser of 0.01 wt % change in 5 minutes or 180 minutes at each RH step. Temperature was fixed at 25° C. and the relative humidity steps (25% to 95% to 25%) were in 5% increments. In FIG. 27, adsorption data is shown as a solid line with desorption data connected by a dashed line. Water Content: Water content was determined by coulometric titration using an EM Science Aquastar® C300 Karl Fischer titrator. TGA: Samples were analyzed using Perkin Elmer TGA 7 thermal gravimetric analyzer at a heating rate of 10° C./min.

[5] = specific surface area (BET); format: physicochemical; conditions: N2, single measurement
Protocol: The sample was degassed for 2 hours prior to surface area analysis at 40° C./vacuum using the Micromeritics […] 061. […] The surface area of (S)-amlodipine L-malate SCL was determined using the BET method. BET (Specific) Surface Area measurement was done with a single run (n=1), using 6 different partial pressures of N2 gas (as the adsorbate). See Brunauer, […]., and Teller, E. J. Amer. Chem. Soc. 1938, 60, 309.

[6] = hygroscopicity studies in relative humidity chambers; format: physicochemical; conditions: 31, 75, 84 and 95% relative humidity, approximately one week
Protocol: Hygroscopicity studies were performed by placing portions of a select form in a 11, 32, 45, 66, 75, 84% or 95% relative humidity (RH) chamber for approximately one to three weeks. Desolvation studies were carried out by heating each form in an 80° C. oven for approximately one week. Interconversion experiments were carried out by making slurries containing two forms in a saturated solvent. The slurries were agitated for approximately seven days at ambient temperature. The insoluble solids were recovered by filtration and analyzed using XRPD.

[7] = moisture balance (polymorph characterization); format: physicochemical; conditions: equilibrated at 95% RH (sorption from 5% to 95% RH)
Protocol: Moisture-sorption data were collected on a VTI SGA-100 moisture balance system. […] The sample was not dried prior to analysis. Equilibrium criteria used for analysis were less than 0.0100 weight-percent change in 5 minutes with a maximum equilibration time of 3 hours if the weight criterion was not met. The data were not corrected for the initial moisture content of the sample.

[8] = water content by Karl Fischer titration; format: physicochemical; conditions: coulometric titration
Protocol: as §1

[9] = pH 4
From the text: (§2) The solution was sampled periodically, filtered using a 0.2 μm PTFE syringe filter and assayed by HPLC.
(§3) The sample was filtered through a 0.2 μm filter and assayed by HPLC.

TGA = format: physicochemical; conditions: heating rate 10° C./min
Protocol: as §1

[10] = water solubility in DI H2O; conditions: pH 3.56
From the text: as §2, §3

[11] = format: physicochemical; conditions: pH 3.8
Protocol: Samples at pH 3.8, 4.5, and 5.0 were monitored over 1 week. […] The sample at pH 8.0 was monitored over 2 days. […] The samples at pH 3.8 or greater were filtered using 0.2 μm PTFE syringe filters and assayed by HPLC. Saturated solutions with excess solid (S)-amlodipine L-malate were prepared and allowed to mix overnight at ambient temperature.

[12] = format: physicochemical; remark: listed apart in the source
Protocol: The GLpKa potentiometric system uses expert system software to calculate and refine the pKa and Log P from simple acid and base titrations of chemical substances. […] The solution was then titrated with acid to the final pH. The pH range of the experiment was 3-11. An approximate pKa was determined, and refined to a final value using the expert system software. The Log P was determined by titration in the presence of octanol. The pKa in water and the pKa in the presence of octanol were compared, and the Log P value was calculated (Avdeef A. Quant. Struct.-Act. Relate. 1992, 11, 510). […] Samples were analyzed in duplicate.

[13] = format: physicochemical; conditions: 60° C./75% RH
Protocol: Individual samples were prepared and stored at 25° C./60% RH and 40° C./75% RH. Samples stored at 60° C./75% RH were packaged in uncapped glass vials. All samples were analyzed for assay and impurity by HPLC.

For `CCOC(=O)C1=C(COCCN)NC(C)=C(C(=O)OC)[C@@H]1c1ccccc1Cl` [(S)-amlodipine maleate], the “pH of saturated solution in water” value [1] was 4.9, the “Adhesion, 5% (S)-Amlodipine salt in Avicel” value [2] was 5.8E−07 g (S)-amlodipine/cm^2 and the “Adhesion, 25% (S)-Amlodipine salt in Avicel” value [2] was 3.9E−06 g (S)-amlodipine/cm^2. For the same molecule, the loss (after 5 hours @ pH 1) was 1% and the loss (after 50 hours @ pH 5) was 1%.
In the case of (S)-amlodipine L-malate, the “Adhesion, 5% (S)-Amlodipine salt in Avicel” value [2] is reported as 4.9E−07 g (S)-amlodipine/cm^2, the “Adhesion, 25% (S)-Amlodipine salt in Avicel” value [2] is reported as 2.6E−06 g (S)-amlodipine/cm^2 and the “adhesion to solid dosage form manufacturing equipment compared to other salts” value [2] is reported as “decreased adhesion”. The “adhesion to solid dosage form manufacturing equipment compared to other salts” value ([2]; listed as malate salt) was “less than for the succinate, maleate, (D)-tartrate, and (L)-tartrate salts”, the wettability (wettability) was “good wettability” and the True density [3] was 1.38 g/cc. The Bulk density ([3]; after 3 taps) was 0.31 g/mL, the Tapped density ([3]; after 1000 taps) was 0.49 g/mL and the True density ([3]; micropycnometer, He gas) was 1.38 g/mL. The “Moisture Desorption (% wt remaining at 25% RH)” value [4] was 0.06 % wt remaining, the “Moisture Adsorption (% wt gain at 95% RH)” value ([4]; 25° C., 95% RH) was 0.24 % wt gain and the “maximum adsorption of water” value ([4]; 25° C./95% RH, three lots tested) was no more than 0.30%. For the same molecule, the “hygroscopicity (in words)” value ([4]; moisture sorption, TGA and Karl Fischer data) was “not hygroscopic”, the Specific surface area [5] was 0.7 m^2/g and the “solid form after humidity storage” value [6] was “remained unchanged”. The “increase in weight, moisture balance” value [7] was 0.5%, the “KF (% H2O)” value [8] was 0.13 % H2O and the “Free Base Concentration” value [9] was 10.1 mg/mL. The “Malate Concentration” value [9] was 13.4 mg/mL, the “TGA (% wt loss)” value (TGA) was 0.14 % wt loss and the “Free Base Concentration” value [10] was 6.0 mg/mL. For the same molecule, the “Malate Concentration” value [10] was 8.0 mg/mL, the solubility [11] was greater than 100 mg/mL and the pKa [12] was 9.19±0.20. The “Log P” value ([12]; pH 5) was −2.67±0.40, the “Log P” value ([12]; pH 7.4) was −0.28±0.40 and the “time for which the solid was fairly stable” value [13] was greater than 2 months.
For `O=C(O)[C@H](O)[C@@H](O)C(=O)O` [(L)-Tartrate], the “Adhesion, 5% (S)-Amlodipine salt in Avicel” value [2] was 9.3E−07 g (S)-amlodipine/cm^2 and the “Adhesion, 25% (S)-Amlodipine salt in Avicel” value [2] was 4.9E−06 g (S)-amlodipine/cm^2.
With `CCOC(=O)C1=C(COCCN)NC(C)=C(C(=O)OC)[C@@H]1c1ccccc1Cl.O=C(O)C(O)C(O)C(=O)O` [(S)-amlodipine D-tartrate] the “Adhesion, 5% (S)-Amlodipine salt in Avicel” value [2] was 6.0E−07 g (S)-amlodipine/cm^2 and the “Adhesion, 25% (S)-Amlodipine salt in Avicel” value [2] was 2.8E−06 g (S)-amlodipine/cm^2.
